{"source": "paper PMC4102931", "about": "(Investigational new drugs, 2010)", "key": {"[1]": {"conditions": "human, in vivo"}, "clinical": {"assay": "clinical", "conditions": "human, in vivo"}, "[2]": {"assay": "Chemotherapy pharmacokinetics alone", "conditions": "for Change in the geometric mean chemotherapy pharmacokinetic parameters when given alone or in combination with cediranib: limited pharmacokinetic data; for AUC / Cmax: alone (cycle 1, day 1), geometric mean (CV%)"}, "[3]": {"conditions": "ref Trial 2171IL0001, cited from earlier work; for Tmax: median (range)"}, "[4]": {"test_system": "patients with a broad range of advanced solid tumors", "conditions": "cited from earlier work"}, "advanced solid tumors": {"test_system": "advanced solid tumors", "assay": "Tumor response evaluation", "assay_type": "in vivo, human"}, "[5]": {"test_system": "patients with advanced CRC", "conditions": "previous phase I study; cited from earlier work"}, "[6]": {"test_system": "patients with advanced solid tumors", "assay": "Dose-limiting toxicities and maximum tolerated dose", "assay_type": "in vivo, human", "conditions": "for MTD of cediranib: once-daily oral"}, "[7]": {"assay": "Steady-state pharmacokinetics of cediranib given with chemotherapy", "assay_type": "in vivo, human", "conditions": "for Css,max / AUC: geometric mean (CV%); for AUC / Tmax: human, plasma, oral; for AUC: AUCss; for Tmax: median (range)"}, "[8]": {"test_system": "patients with advanced solid tumors", "assay": "Safety and tolerability: adverse events graded by NCI CTC version 3.0", "assay_type": "in vivo, human"}, "[9]": {"conditions": "20 mg, Arm 1 (with mFOLFOX6), cediranib 20 mg, n=5"}, "[10]": {"conditions": "20 mg, Arm 3A (with irinotecan), cediranib 20 mg, n=5"}, "[11]": {"conditions": "20 mg, Arm 3B (with irinotecan and cetuximab), cediranib 20 mg, n=3"}, "[12]": {"conditions": "30 mg, Arm 2 (with docetaxel), cediranib 30 mg, n=8"}, "[13]": {"conditions": "all arms, cediranib with chemotherapy"}}, "note": "Read-outs that look alike come from different tables or passages of the source. Marks after values point to notes of the source that are not given here.", "data": [{"smiles": "O=c1[nH]cc(F)c(=O)[nH]1", "note": "[5-FU]", "values": [{"measurement": "Cmax", "setting": "[1]", "value": "544 (72.9) ng/mL"}]}, {"smiles": "CC(=O)O[C@@]12CO[C@@H]1C[C@H](O)[C@@]1(C)C(=O)[C@H](O)C3=C(C)[C@@H](OC(=O)[C@H](O)[C@@H](NC(=O)OC(C)(C)C)c4ccccc4)C[C@@](O)([C@@H](OC(=O)c4ccccc4)[C@H]21)C3(C)C", "note": "[Docetaxel]", "values": [{"measurement": "AUC", "setting": "clinical; AUC", "value": 3770, "unit": "ng·h/mL"}]}, {"smiles": "CCc1c2c(nc3ccc(OC(=O)N4CCC(N5CCCCC5)CC4)cc13)-c1cc3c(c(=O)n1C2)COC(=O)[C@]3(O)CC", "note": "[Irinotecan]", "values": [{"measurement": "Cmax", "setting": "[1]", "value": "3040 (18.3) ng/mL"}, {"measurement": "Cmax", "setting": "clinical; Cmax", "value": 3290, "unit": "ng/mL"}]}, {"smiles": "O=C1[O][Pt]2([NH][C@@H]3CCCC[C@H]3[NH]2)[O]C1=O", "note": "[Oxaliplatin, reference compound]", "values": [{"measurement": "Change in the geometric mean chemotherapy pharmacokinetic parameters when given alone or in combination with cediranib", "setting": "[2]", "value": "< 2", "unit": "fold"}]}, {"smiles": "Nc1nc2[nH]cc(CCc3ccc(C(=O)N[C@@H](CCC(=O)O)C(=O)O)cc3)c2c(=O)[nH]1", "note": "[Pemetrexed]", "values": [{"measurement": "AUC", "setting": "[1]", "value": "295 (37.7)^e u.g.h/mL"}, {"measurement": "Cmax", "setting": "[1]", "value": "180 (14.2)^e u.g/mL"}]}, {"smiles": "CCc1c2c(nc3ccc(O)cc13)-c1cc3c(c(=O)n1C2)COC(=O)[C@]3(O)CC", "note": "[SN38]", "values": [{"measurement": "AUC", "setting": "[2]; Arm 3A", "value": "595 (53.5) ng/mL•h"}, {"measurement": "Cmax", "setting": "[2]; Arm 3A", "value": "35.4 (50.1) ng/mL"}, {"measurement": "AUC", "setting": "[2]; Arm 3B (with cetuximab)", "value": "482 (22.3) ng/mL•h"}, {"measurement": "Cmax", "setting": "[2]; Arm 3B (with cetuximab)", "value": "29.1 (21.0) ng/mL"}, {"measurement": "Change in the geometric mean chemotherapy pharmacokinetic parameters when given alone or in combination with cediranib", "setting": "[2]", "value": "< 2", "unit": "fold"}]}, {"smiles": "COc1cc2c(Oc3ccc4[nH]c(C)cc4c3F)ncnc2cc1OCCCN1CCCC1", "note": "[cediranib, Cediranib]", "values": [{"measurement": "Css,max", "setting": "[3]; single-agent cediranib 20 mg, multiple once-daily oral doses, n=11, geometric mean (CV%)", "value": "66.6 (52.9) ng/mL"}, {"measurement": "AUCss", "setting": "[3]; single-agent cediranib 20 mg, n=11, geometric mean (CV%)", "value": "774 (51.6) ng/mL•h"}, {"measurement": "Tmax", "setting": "[3]; single-agent cediranib 20 mg, n=11", "value": "3.0 (2.0, 6.4) h"}, {"measurement": "AUCss", "setting": "[3]; single-agent cediranib 30 mg, n=12, geometric mean (CV%)", "value": "741 (48.7) ng/mL•h"}, {"measurement": "Tmax", "setting": "[3]; single-agent cediranib 30 mg, n=12", "value": "2.1 (1.0, 4.0) h"}, {"measurement": "Doses at which cediranib monotherapy was generally well tolerated", "setting": "[4]", "value": "≤ 45", "unit": "mg/day"}, {"measurement": "Partial tumor responses, all arms", "setting": "advanced solid tumors; 46 patients with efficacy data, 35 evaluable by RECIST", "value": "four"}, {"measurement": "Median duration of treatment of the four patients with partial response", "setting": "advanced solid tumors; range 154-384", "value": 319, "unit": "days"}, {"measurement": "Recommended phase II dose in combination with mFOLFOX6", "setting": "[5]", "value": 30, "unit": "mg/day"}, {"measurement": "MTD of cediranib", "setting": "[6]; in combination with docetaxel (arm 2)", "value": 30, "unit": "mg"}, {"measurement": "MTD of cediranib according to the protocol definition", "setting": "[6]; in combination with irinotecan and cetuximab", "value": 20, "unit": "mg"}, {"measurement": "MTD of cediranib", "setting": "[6]; in combination with irinotecan", "value": 20, "unit": "mg"}, {"measurement": "MTD of cediranib", "setting": "[6]; in combination with mFOLFOX6", "value": 20, "unit": "mg"}, {"measurement": "MTD of cediranib", "setting": "[6]; in combination with pemetrexed (arm 4)", "value": 30, "unit": "mg"}, {"measurement": "Css,max", "setting": "[7]; Arm 1 (with mFOLFOX6), cediranib 20 mg, n=5", "value": "65.3 (86.2) ng/mL"}, {"measurement": "Css,max", "setting": "[7]; Arm 2 (with docetaxel), cediranib 30 mg, n=8", "value": "62.5 (53.3) ng/mL"}, {"measurement": "Css,max", "setting": "[7]; Arm 3A (with irinotecan), cediranib 20 mg, n=5", "value": "76.0 (57.6) ng/mL"}, {"measurement": "Css,max", "setting": "[7]; Arm 3B (with irinotecan and cetuximab), cediranib 20 mg, n=3", "value": "50.9 (126) ng/mL"}, {"measurement": "Css,max", "setting": "[7]; Arm 4 (with pemetrexed), cediranib 30 mg, n=4", "value": "74.9 (31.6) ng/mL"}, {"measurement": "AUC", "setting": "[7]; [9]", "value": 986, "unit": "ng·h/mL"}, {"measurement": "AUC", "setting": "[7]; [10]", "value": 1010, "unit": "ng·h/mL"}, {"measurement": "AUC", "setting": "[7]; [11]", "value": 668, "unit": "ng·h/mL"}, {"measurement": "Tmax", "setting": "[7]; [9]", "value": 4, "unit": "h"}, {"measurement": "Tmax", "setting": "[7]; [10]", "value": 2.1, "unit": "h"}, {"measurement": "Tmax", "setting": "[7]; [11]", "value": 4, "unit": "h"}, {"measurement": "AUC", "setting": "[7]; [12]", "value": 1100, "unit": "ng·h/mL"}, {"measurement": "Tmax", "setting": "[7]; [12]", "value": 5, "unit": "h"}, {"measurement": "Serious adverse events of hypertension", "setting": "[8]; across all arms", "value": "Three"}, {"measurement": "CTC grade 1 hypertension", "setting": "[8]; across all arms, n=59", "value": 21, "unit": "patients"}, {"measurement": "CTC grade 3 hypertension", "setting": "[8]; across all arms, n=59", "value": "three"}, {"measurement": "CTC grade 3 leukopenia", "setting": "[8]; across all arms, n=59", "value": "nine"}, {"measurement": "CTC grade 3 neutropenia", "setting": "[8]; across all arms, n=59", "value": 11, "unit": "patients"}, {"measurement": "CTC grade 3 or 4 diarrhea of any causality", "setting": "[8]; across all arms, n=59", "value": 12, "unit": "patients"}, {"measurement": "CTC grade 3 or 4 fatigue of any causality", "setting": "[8]; across all arms, n=59", "value": 16, "unit": "patients"}, {"measurement": "CTC grade 3 or 4 leukopenia of any causality", "setting": "[8]; across all arms, n=59", "value": 13, "unit": "patients"}, {"measurement": "CTC grade 3 or 4 neutropenia of any causality", "setting": "[8]; across all arms, n=59", "value": 19, "unit": "patients"}, {"measurement": "CTC grade 4 leukopenia", "setting": "[8]; across all arms, n=59", "value": "four"}, {"measurement": "CTC grade 4 neutropenia", "setting": "[8]; across all arms, n=59", "value": 8, "unit": "patients"}, {"measurement": "Serious adverse event: fatigue", "setting": "[8]; across all arms, number (%)", "value": "16 (27%) patients"}, {"measurement": "Serious adverse event: leukopenia", "setting": "[8]; across all arms, number (%)", "value": "12 (20%) patients"}, {"measurement": "Serious adverse event: neutropenia", "setting": "[8]; across all arms, number (%)", "value": "18 (30%) patients"}, {"measurement": "Patients discontinued due to diarrhea", "setting": "[8]; across the study", "value": "three"}, {"measurement": "Patients discontinued due to fatigue", "setting": "[8]; across the study", "value": "two"}, {"measurement": "Abdominal pain, any grade (%), Total (n=59)", "setting": "[8]; [13]", "value": "16 (27%)"}, {"measurement": "Alopecia, any grade (%), Total (n=59)", "setting": "[8]; [13]", "value": "15 (25%)"}, {"measurement": "Anorexia, any grade (%), Total (n=59)", "setting": "[8]; [13]", "value": "25 (42%)"}, {"measurement": "Decreased weight, any grade (%), Total (n=59)", "setting": "[8]; [13]", "value": "21 (36%)"}, {"measurement": "Dehydration, any grade (%), Total (n=59)", "setting": "[8]; [13]", "value": "19 (32%)"}, {"measurement": "Dyspnea, any grade (%), Total (n=59)", "setting": "[8]; [13]", "value": "18 (31%)"}, {"measurement": "Headache, any grade (%), Total (n=59)", "setting": "[8]; [13]", "value": "16 (27%)"}, {"measurement": "Leukopenia, any grade (%), Total (n=59)", "setting": "[8]; [13]", "value": "20 (34%)"}, {"measurement": "Nausea, any grade (%), Total (n=59)", "setting": "[8]; [13]", "value": "36 (61%)"}, {"measurement": "Neutropenia, any grade (%), Total (n=59)", "setting": "[8]; [13]", "value": "27 (46%)"}, {"measurement": "Vomiting, any grade (%), Total (n=59)", "setting": "[8]; [13]", "value": "30 (51%)"}, {"measurement": "Adverse events of proteinuria (all CTC grade 1 or 2)", "setting": "[8]; all study arms except arm 4", "value": "Seven"}, {"measurement": "Increases in blood TSH above the normal range (> 5 mU/L)", "setting": "[8]; overall", "value": 26, "unit": "patients"}, {"measurement": "Neutrophil counts of less than 1×10^9/L", "setting": "[8]; overall, n=59", "value": "Fourteen"}, {"measurement": "Patients discontinuing due to adverse events", "setting": "[8]; total, number (%)", "value": "12 (20%) patients"}]}]}
